What was measured:
hSMVT [1] = target: T1, hSMVT (Homo sapiens, UniProt Q9Y289); experiment: Transport currents in SMVT-expressing Xenopus oocytes, normalized to biotin; format: cell-based; conditions: response relative to biotin, transporter-expressing oocytes, test compound 0.5 mM
T1 sequence (Q9Y289 1-635): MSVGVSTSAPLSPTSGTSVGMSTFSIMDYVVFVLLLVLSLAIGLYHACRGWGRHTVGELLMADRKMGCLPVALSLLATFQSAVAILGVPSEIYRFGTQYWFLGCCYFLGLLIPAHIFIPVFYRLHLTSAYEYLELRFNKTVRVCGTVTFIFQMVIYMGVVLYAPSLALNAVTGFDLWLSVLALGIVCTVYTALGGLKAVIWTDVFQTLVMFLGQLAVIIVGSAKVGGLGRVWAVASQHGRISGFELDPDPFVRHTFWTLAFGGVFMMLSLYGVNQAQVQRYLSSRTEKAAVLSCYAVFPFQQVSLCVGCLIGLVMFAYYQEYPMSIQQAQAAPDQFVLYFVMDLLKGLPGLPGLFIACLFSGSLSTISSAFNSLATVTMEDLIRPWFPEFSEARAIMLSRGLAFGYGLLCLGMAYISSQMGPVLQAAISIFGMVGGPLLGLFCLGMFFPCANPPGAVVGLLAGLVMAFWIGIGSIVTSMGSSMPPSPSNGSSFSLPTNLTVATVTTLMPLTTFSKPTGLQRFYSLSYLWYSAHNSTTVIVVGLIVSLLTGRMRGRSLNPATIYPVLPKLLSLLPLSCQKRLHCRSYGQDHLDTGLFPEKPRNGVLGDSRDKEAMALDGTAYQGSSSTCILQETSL
From the text: (§1) The complete open reading frame of human ATBO+(SLC6A14) and SMVT (SLC5A6) were amplified from human cDNA prepared from liver or intestine mRNA. Gene-specific oligonucleotide primers were designed against Genbank sequences (AF151978 and NM-021095). Amplified PCR products were cloned into a modified version of the mammalian expression vector pcDNA3 (termed pMO) that was engineered to contain the 5′ and 3′ untranslated regions from the Xenopus beta-globin gene. All clones were completely sequenced and tested for function by transient transfection in HEK293 cells.
cRNA for oocyte expression was prepared by linearization of plasmid cDNA and in vitro transcription using T7 polymerase (Epicentre Ampliscribe kit). Xenopus oocytes were prepared and maintained as previously described (Collins et al., PNAS […]:5456-5460 (1997)) and injected with 10-30 ng RNA. Transport currents were measured 2-6 days later using two-electrode voltage-clamp (Axon Instruments). All experiments were performed using a modified oocyte Ringers solution (90 mM NaCl, 2 mM KCl, 1.8 mM CaCl2, 1 mM MgCl2, and 10 mM Na HEPES, pH 7.4; in Na^+-free solutions 90 mM choline chloride was substituted for NaCl). The membrane potential of oocytes was held at −60 mV and current traces acquired using PowerLab software (AD Instruments). Full 7-concentration dose-responses were performed for each compound. […] Half-maximal concentrations were calculated using non-linear regression curve fitting software (Prism) with the Hill co-efficient fixed to 1. To ensure that currents were specific for the over-expressed transporter, all compounds were tested against uninjected oocytes. Since both ATBO+ and SMVT require Na^+ for transport, we confirmed transport specificity by application of the compounds in a Na^+-free solution.
In vitro transport data for selected compounds on hSMVT-expressing cells

[2] = Uptake of compounds through the rat colon (intracolonic dosing, gabapentin in blood by LC/MS/MS); format: in vivo; conditions: dose equivalent to 25 mg gabapentin per kg, FIG. 3A
Experimental: Rats were obtained commercially and were pre-cannulated in the both the ascending colon and the jugular vein. Animals were conscious at the time of the experiment. All animals were fasted overnight and until 4 hours post-dosing. Prodrugs were administered as a solution (in water or polyethylene glycol 400) directly into the colon via the cannula at a dose equivalent to 25 mg of gabapentin per kg. Blood samples (0.5 mL) were obtained from the jugular cannula at intervals over 8 hours and were quenched immediately by addition of acetonitrile/methanol to prevent further conversion of the prodrug. Blood samples were analyzed as described in the attached sample analysis summary.
1. In blank 1.5 mL eppendorf tubes, add 300 μL of a 50/50 mixture of acetonitrile/methanol and 20 μL of the p-chlorophenylalanine as internal standard.
2. Rat blood was collected at different time points and immediately 100 μL of blood was added into the eppendorf tube and vortex to mix.
3. 10 μL of the gabapentin standard solution (0.04, 0.2, 1, 5, 25, 100 μg/mL) was added to 90 μL of blank rat blood to make up a final calibration standard (0.004, 0.02, 0.1, 0.5, 2.5, 10 μg/mL). […]
API 2000 LC/MS/MS mass spectrometer equipped with Shidmadzu 10ADVp binary pumps and an autosampler (CTC Analytics AG, High Throughput Screening-PAL) were used in the analysis. […] The peaks were integrated by the Analyst 1.1 quantitation software.

HEK cells = experiment: pH assay of uptake by transporters naturally expressed in HEK cells, with and without phloretin; format: cell-based, human; conditions: phloretin 0.5 mM, FIG. 1
Experimental: Although HEK's are a kidney derived cell line, they express some of the same transporters as the colon and can be used as a preliminary screen to identify substrates of colon-expressed transporters.
Cells were seeded at 100,000/well in 96 black, clear bottom plate overnight and washed twice in 100 μL buffer I at room temperature.
Cells were loaded with […] 2,7-bis-(2-carboxyethyl)-5-carboxyfluoroscein acetoxymethyl ester (BCECF AM) (resuspended in 50:50 dimethylsulfoxide:Pluronic™ surfactant mixture) in buffer 1 for 15 min. at 37° C. at 50 μL/well.
The rest of the protocol was performed at room temperature.
Cells were washed twice in buffer 2 at 50 μL/well. A first reading was taken in FLEX station in the buffer 2 at two sets of fluorescence excitation/emission wavelengths, 440/535 and 490/535, with 50 μL buffer/well. […] A second reading was taken in FLEX station at above settings (T0). […] A third reading was taken in FLEX station at above settings (T1). […]
For each well, values for A, B and C were calculated using the T0 and T1 data and the following equations:
A=measured fluorescence at excitation/emission wavelengths 440/535−background
B=measured fluorescence at excitation/emission wavelengths 490/535−background
The C values for the T0 and T1 data were used to determine the percent decrease in fluorescence at T1 relative to T0. […]

hSMVT [3] = target: T1, hSMVT; experiment: Radiolabeled competition assay in SMVT-expressing CHO cells; format: cell-based
From the text: as §1, with “Gene-specific oligonucleotide primers were designed against Genbank sequences (AF151978 and NM-021095).” left out
For cell uptake studies, stable CHOK1 clones were seeded into polylysine coated 96-well microtitre plates and grown for 2-3 days. Cells were incubated with experimental solutions (combinations of radiolabeled and unlabeled compounds) for 30 minutes at room temperature, washed four times, and lysed in scintillation solution. Accumulation of radiolabeled molecules was measured in a microtitre scintillation plate reader (Perkin Elmer). Inhibition constants (IC50s) were calculated using curve-fitting software (Prism).

| Structure (SMILES) | % Max. (Biotin) (hSMVT [1]) | Colonic uptake determined from plasma concentration of gabapentin [2] | Uptake by HEK cells in presence and absence of transporter inhibitor phloretin (HEK cells) | IC50 (hSMVT [3]) |
| --- | --- | --- | --- | --- |
| CC(C)(C)C(=O)OCOC(=O)NCC1(CC(=O)O)CCCCC1 [Compound I, gabapentin pivaloxymethyl carbamate] | 21% | taken up best | phloretin substantially inhibits uptake of Compound I | – |
| CC(=O)OC(C)OC(=O)NCC1(CC(=O)O)CCCCC1 (stereo not drawn) [Compound IV, gabapentin acetoxyethyl carbamate] | – | – | – | 80 µM |
| NCC1(CC(=O)O)CCCCC1 [Gabapentin, reference compound] | 0% | not taken up significantly | – | – |
